In patent US8039505B2, “Compounds for modulating T-cells” (University of Utah Research Foundation, priority 2007, dated 2011):

Assays:
human T-ALL line Jurkat = assay: MTT cell viability, Jurkat; assay type: cell-based; settings: 48 hours
Protocol: (§1) FIG. 3 is a graph showing viability of human T-ALL lines incubated with individual compounds. Specifically, two human ALL lines (B-ALL: RS4; 11 and T-ALL: Jurkat) were incubated on day 0 with serum or with 2.5 μM of the indicated compounds (except for aphidicolin 1 μM and cyclosporine 1.5 μM). 48 hours later, cells were tested for viability by MTT test. Results from the mean of 3 to 4 experiments carried out in triplicate (individual dots) and the mean of all experiments (horizontal bar) are indicated. Results are shown for compounds without a cell cycle effect (B). Viability of untreated cells was arbitrarily set at 1.0.
(§2) Cell culture experiments: Cells were incubated at 37° C. in 75 mL flasks in RPMI containing 10% FBS, 5 mL Penicillin/Streptomycin (100×) in a total volume of […]. Cells were counted using a hemocytometer, and 25,000 cells were plated in each well of a 96-well plate. Compounds and controls were added and cells were harvested after a 48 hr incubation period.
(§3) To assess effects of compounds, cell viability was measured. […] After crystal solubilization with DMSO a blue color (that is proportional to the amount of crystal formed) can be measured. […] Final optical density (OD) obtained from formazan formation was calculated OD=L1-L2 (background). […]

[1] = test system: human B-ALL line RS 4; 11; assay: MTT cell viability, RS4;11; assay type: cell-based; settings: RS4;11, 2.5 μM, 48 hours
Protocol: as §1, §2, §3

C(=NNc1cccc2cccnc12)c1c[nH]c2ccccc12 [Compound C3, 1H-indole-3-carbaldehyde quinolin-8-ylhydrazone]
Response of T cell leukemia line (viability, MTT) (human T-ALL line Jurkat; 2.5 μM, FIG. 3): responded similarly | Effective concentration killing Jurkat in vitro (human T-ALL line Jurkat; MTT): 2.5 µM | Effect on B-ALL line (viability, MTT) [1]: neither the kidney cell line, nor the B-ALL were affected
